Experimental data: publication PMC7381729, “A new class of PentixaFor- and PentixaTher-based theranostic agents with enhanced CXCR4-targeting efficiency” (Theranostics, 2020)
Where two headings read alike, the source gives them in different places. Where a SMILES comes first, the peptide text is derived from it. Side-chain parts run from the residue outwards. [ ]: non-standard residue; d: D form. The star is where a group is joined. DOTA = O=C(O)CN1CCN(CC(=O)O)CCN(CC(=O)*)CCN(CC(=O)O)CC1; dTyr(3-I) = N[C@H](Cc1ccc(O)c(I)c1)C(=O)O; 2Nal = N[C@@H](Cc1ccc2ccccc2c1)C(=O)O; dNMeOrn = CN[C@H](CCCN)C(=O)O; 4Abz = Nc1ccc(C(=O)O)cc1

Columns and labels:
[1] = Lipophilicity, modified shake-flask method; type: physicochemical; conditions: O/PBS, radiolabeled compound, means ± SD (n=6)
Method: The lipophilicity (log PO/PBS) of the ^68Ga- and ^177Lu-labeled compounds in this study was determined via a modified shake-flask method.

[2] = system: Daudi (human B-cell lymphoma) xenograft bearing CB-17 SCID mice; assay: Biodistribution in Daudi xenograft bearing mice; type: in vivo, mouse; conditions: 1h p.i., tracer only, i.v.; γ-counter; means ± SD, n=4-5 (68Ga: n=4)
Method: (§1) The biodistribution of selected compounds was investigated in Daudi (human B-cell lymphoma) xenograft bearing female CB-17 SCID mice (6-8 weeks, Charles River, Sulzfeld, Germany), [29]. All animal experiments were performed in accordance with current animal welfare regulations in Germany (approval #55.2-1-54-2532-71-13).
(§2) Animals (n=4-5 per group) were injected intravenously with 5-10 MBq (0.08-0.11 nmol peptide per mouse) of the respective ^68Ga- and^ 177Lu-labeled CXCR4 ligands in PBS (100 µL) into the tail vein under isoflurane anesthesia. CXCR4-specificity of binding was determined by coinjection of 50 µg AMD3100 per mouse. The animals were sacrificed 1, 6 and 48h post injection (p.i.), and the organs of interest were dissected. The radioactivity was measured in weighted tissue samples using a γ-counter. Data are expressed in % ID/g tissue (mean ± SD).

[3] = Small animal PET imaging in Daudi xenograft bearing mice; type: in vivo; conditions: CB17 SCID, mouse, iv, total radioactivity, 90 min p.i., dynamic PET, ROI analysis, n=1 per compound
Method: Small aminal PET imaging studies were performed using a Siemens Inveon PET scanner. Animals were anesthetized with isoflurane and injected via the tail vein with 10 to 15 MBq (0.1 nmol) of the respective tracer. Dynamic imaging (n=1 per compound) was performed after on-bed injection for 1.5 h, and static images (n=1 per compound) were acquired at 1 h p.i. with an acquisition time of 15 min. Data analysis was performed using the Inveon Research Workplace software. Images were reconstructed using a 3D ordered-subsets expectation maximum (OSEM3D) algorithm without scanner and attenuation correction. Time-activity curves (Figure 4) were obtained by generating isocontour regions of interest (ROI) for the tumor and the heart content (as a surrogate for blood activity), as well as by defining two spherical ROIs (each 23.4 mm^3) in the thigh area (muscle) and areas of homogenous tracer uptake in the liver, followed by plotting of average activity ± SD per volume in these ROIs over time.  Figure 4 Results from small animal PET imaging using [^68Ga]PentixaFor (top row), [^68Ga]DOTA-r-a-ABA-CPCR4 (middle row) and [^68Ga]DOTA-r-a-ABA-iodoCPCR4 (bottom row) in Daudi xenograft bearing CB17 SCID mice. Images on the left (MIP) were obtained by static imaging (1h p.i., n=1), the time activity curves (TAC) on the right were acquired by dynamic PET imaging (0-90 min p.i., n=1).

[4] = Biodistribution in Daudi xenograft bearing mice; type: in vivo, mouse; conditions: female, CB-17 SCID, mouse, iv, total radioactivity, 1h p.i., tracer only, i.v., γ-counter, means ± SD, n=4-5 (68Ga: n=4)
Method: as §1, §2

human CXCR4 (hCXCR4) = molecular target: T1, human CXCR4 (hCXCR4) (Homo sapiens, UniProt P61073); assay: Competition binding to hCXCR4, Jurkat cells, [125I]FC-131 as radioligand; conditions: Jurkat cells 400.000 cells/sample, means ± SD of min. three separate experiments
T1 construct: hCXCR4-expressing Jurkat human T-cell leukemia cells; endogenous in cells; host or cells: Jurkat human T-cell leukemia cells (whole cells)
T1 sequence (P61073 whole entry): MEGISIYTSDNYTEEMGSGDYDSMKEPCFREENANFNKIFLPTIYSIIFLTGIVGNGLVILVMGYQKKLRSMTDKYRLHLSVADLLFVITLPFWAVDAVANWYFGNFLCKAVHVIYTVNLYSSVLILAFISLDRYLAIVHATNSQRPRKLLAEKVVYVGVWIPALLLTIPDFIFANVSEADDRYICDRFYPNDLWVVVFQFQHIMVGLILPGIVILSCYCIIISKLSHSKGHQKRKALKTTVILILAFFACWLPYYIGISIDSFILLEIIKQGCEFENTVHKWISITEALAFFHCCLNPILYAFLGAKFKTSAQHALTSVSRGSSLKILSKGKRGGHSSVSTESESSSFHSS
Method: Experiments were performed in triplicate with n=3 per concentration in each experiment. IC50 values were calculated using GraphPad Prism 6.01 (Graph Pad Software, San Diego, USA).
Figure 2 Binding affinities (IC50 in nM) of the respective ^natGa-, ^natLu-, ^natY- and ^natBi-complexes of PentixaFor (entry 1), PentixaTher (entry 2) and a series of CPCR4-(blue) and iodoCPCR4-(black) derived analogs with modified linker structure (entries 3-14) to human CXCR4 (hCXCR4). […] Each experiment was performed in triplicate, and results are means ± SD from a minimum of three separate experiments. TEXT PRINTED IN THE PICTURE: 1: ^natGa-complex IC50 [nM]: 24.8 ± 2.5; ^natLu-complex IC50 [nM]: 41 ± 12; ^natY-complex IC50 [nM]: 40 ± 27 | 2: ^natGa-complex IC50 [nM]: 6.1 ± 1.5; ^natLu-complex IC50 [nM]: 14.6 ± 1.0; ^natY-complex IC50 [nM]: 20.4 ± 0.3; ^natBi-complex IC50 [nM]: 24.4 ± 3.7 | 3: ^natGa-complex IC50 [nM]: 282 ± 90; ^natLu-complex IC50 [nM]: 12.5 ± 3.2; ^natY-complex IC50 [nM]: 216 ± 33; ^natBi-complex IC50 [nM]: 27 ± 14 | 4: ^natGa-complex IC50 [nM]: 14.4 ± 0.3; ^natLu-complex IC50 [nM]: 28 ± 9; ^natY-complex IC50 [nM]: 83 ± 30 | 5: ^natLu-complex IC50 [nM]: 106 ± 10 | 6: ^natGa-complex IC50 [nM]: 7.9 ± 1.1; ^natLu-complex IC50 [nM]: 5.9 ± 0.3; ^natY-complex IC50 [nM]: 6.7 ± 1.2; ^natBi-complex IC50 [nM]: 14.5 ± 0.2 | 7: ^natGa-complex IC50 [nM]: 47 ± 8; ^natLu-complex IC50 [nM]: 39 ± 1; ^natY-complex IC50 [nM]: 43 ± 2 | 8: ^natGa-complex IC50 [nM]: 3.6 ± 0.7; ^natLu-complex IC50 [nM]: 3.5 ± 0.3; ^natY-complex IC50 [nM]: 4.1 ± 1.3; ^natBi-complex IC50 [nM]: 3.5 ± 0.4 | 9: ^natGa-complex IC50 [nM]: 8.9 ± 3.8; ^natLu-complex IC50 [nM]: 8.0 ± 3.1; ^natY-complex IC50 [nM]: 6.3 ± 2.5 | 10: ^natGa-complex IC50 [nM]: 2.4 ± 0.1; ^natLu-complex IC50 [nM]: 3.6 ± 1.1; ^natY-complex IC50 [nM]: 2.4 ± 0.2; ^natBi-complex IC50 [nM]: 38 ± 25 | 11: ^natGa-complex IC50 [nM]: 9.7 ± 2.8; ^natLu-complex IC50 [nM]: 5.4 ± 1.6; ^natY-complex IC50 [nM]: 8.7 ± 2.9 | 12: ^natGa-complex IC50 [nM]: 1.4 ± 0.2; ^natLu-complex IC50 [nM]: 2.1 ± 0.3; ^natY-complex IC50 [nM]: 2.1 ± 0.3; ^natBi-complex IC50 [nM]: 2.9 ± 0.1 | 13: ^natGa-complex IC50 [nM]: 0.4 ± 0.1; ^natLu-complex IC50 [nM]: 1.5 ± 0.1; ^natY-complex IC50 [nM]: 1.5 ± 0.1 | 14: ^natGa-complex IC50 [nM]: 2.6 ± 1.0; ^natLu-complex IC50 [nM]: 1.7 ± 0.6; ^natY-complex IC50 [nM]: 1.6 ± 0.5; ^natBi-complex IC50 [nM]: 1.8 ± 0.8

[5] = natBi-complex, read-out: ^natBi-complex IC50 to hCXCR4
[6] = natGa-complex, read-out: ^natGa-complex IC50 to hCXCR4
[7] = natLu-complex, read-out: ^natLu-complex IC50 to hCXCR4
[8] = natY-complex, read-out: ^natY-complex IC50 to hCXCR4

Compound	IC50 (human CXCR4 (hCXCR4); [6])	IC50 (human CXCR4 (hCXCR4); [7])	IC50 (human CXCR4 (hCXCR4); [8])	also measured
CN1C(=O)[C@@H](Cc2ccc(O)c(I)c2)NC(=O)CNC(=O)[C@H](Cc2ccc3ccccc3c2)NC(=O)[C@H](CCCNC(=N)N)NC(=O)[C@H]1CCCNC(=O)c1ccc(NC(=O)CNC(=O)[C@@H](CCCNC(=N)N)NC(=O)CN2CCN(CC(=O)O)CCN(CC(=O)O)CCN(CC(=O)O)CC2)cc1 [[^68Ga]DOTA-r-G-ABA-iodoCPCR4] [metal not drawn] (cyclo([2Nal]G[dTyr(3-I)][dNMeOrn]([4Abz-Gly-dR-DOTA])R))	–	–	–	log PO/PBS [1]: -3.0 ± 0.02
C[C@@H](NC(=O)[C@@H](CCCNC(=N)N)NC(=O)CN1CCN(CC(=O)O)CCN(CC(=O)O)CCN(CC(=O)O)CC1)C(=O)Nc1ccc(C(=O)NCCC[C@@H]2C(=O)N[C@@H](CCCNC(=N)N)C(=O)N[C@@H](Cc3ccc4ccccc4c3)C(=O)NCC(=O)N[C@H](Cc3ccc(O)cc3)C(=O)N2C)cc1 [[^68Ga]DOTA-r-a-ABA-CPCR4] [metal not drawn] (cyclo([2Nal]G[dY][dNMeOrn]([4Abz-dA-dR-DOTA])R))	–	–	–	log PO/PBS [1]: -3.6 ± 0.06; Biodistribution blood [2]: 3.95 ± 0.89 %iD/g; Biodistribution liver [2]: 5.63 ± 0.51 %iD/g
C[C@@H](NC(=O)[C@@H](CCCNC(=N)N)NC(=O)CN1CCN(CC(=O)O)CCN(CC(=O)O)CCN(CC(=O)O)CC1)C(=O)Nc1ccc(C(=O)NCCC[C@@H]2C(=O)N[C@@H](CCCNC(=N)N)C(=O)N[C@@H](Cc3ccc4ccccc4c3)C(=O)NCC(=O)N[C@H](Cc3ccc(O)c(I)c3)C(=O)N2C)cc1 [[^68Ga]DOTA-r-a-ABA-iodoCPCR4, metal not drawn] (cyclo([2Nal]G[dTyr(3-I)][dNMeOrn]([4Abz-dA-dR-DOTA])R))	–	–	–	tissue uptake per volume at 1.5 h ([3]; kidney, read-out: Kidney uptake in PET): 4.3 ± 0.4 %ID/mL; tissue uptake per volume at 1.5 h ([3]; liver, average ± SD per volume in ROI, read-out: Liver uptake in PET): 6.1 ± 0.1 %ID/mL; tissue uptake per volume at 1.5 h ([3]; tumor (Daudi xenograft), Daudi xenograft, read-out: Tumor accumulation in PET): 14.2 ± 1.5 %ID/mL; tissue uptake at 1 h ([4]; blood, read-out: Biodistribution blood): 3.71 ± 0.28 %ID/g; tissue uptake at 1 h ([4]; colon, read-out: Biodistribution colon): 0.65 ± 0.29 %ID/g; tissue uptake at 1 h ([4]; femur, read-out: Biodistribution femur): 1.41 ± 0.16 %ID/g; tissue uptake at 1 h ([4]; heart, read-out: Biodistribution heart): 1.56 ± 0.2 %ID/g; tissue uptake at 1 h ([4]; kidney, read-out: Biodistribution kidney): 6.25 ± 0.52 %ID/g; tissue uptake at 1 h ([4]; muscle, read-out: Biodistribution muscle): 0.49 ± 0.08 %ID/g; tissue uptake at 1 h ([4]; pancreas, read-out: Biodistribution pancreas): 0.88 ± 0.06 %ID/g; tissue uptake at 1 h ([4]; small intestine, read-out: Biodistribution small intestine): 1.18 ± 0.03 %ID/g
CN1C(=O)[C@@H](Cc2ccc(O)c(I)c2)NC(=O)CNC(=O)[C@H](Cc2ccc3ccccc3c2)NC(=O)[C@H](CCCNC(=N)N)NC(=O)[C@H]1CCCNC(=O)c1ccc(NC(=O)CNC(=O)[C@@H](CCCNC(=N)N)NC(=O)CN2CCN(CC(=O)O)CCN(CC(=O)O)CCN(CC(=O)O)CC2)cc1 [[^177Lu]DOTA-r-G-ABA-iodoCPCR4] [metal not drawn] (cyclo([2Nal]G[dTyr(3-I)][dNMeOrn]([4Abz-Gly-dR-DOTA])R))	–	–	–	log PO/PBS [1]: -2.7 ± 0.05
PentixaFor [entry 1, reference compound]	24.8 ± 2.5 nM	41 ± 12 nM	40 ± 27 nM	–

Continued, in another order:

IC50 (human CXCR4 (hCXCR4); [6])	IC50 (human CXCR4 (hCXCR4); [7])	IC50 (human CXCR4 (hCXCR4); [8])	Compound	also measured
7.9 ± 1.1 nM	5.9 ± 0.3 nM	6.7 ± 1.2 nM	DOTA-G-ABA-iodoCPCR4 (head to tail) [entry 6]	IC50 (human CXCR4 (hCXCR4); [5]): 14.5 ± 0.2 nM
–	106 ± 10 nM	–	DOTA-d-ABA-iodoCPCR4 (head to tail) [entry 5]	–
8.9 ± 3.8 nM	8 ± 3.1 nM	6.3 ± 2.5 nM	DOTA-k-G-ABA-CPCR4 [entry 9]	–
2.4 ± 0.1 nM	3.6 ± 1.1 nM	2.4 ± 0.2 nM	DOTA-k-G-ABA-iodoCPCR4 (head to tail) [entry 10]	IC50 (human CXCR4 (hCXCR4); [5]): 38 ± 25 nM
9.7 ± 2.8 nM	5.4 ± 1.6 nM	8.7 ± 2.9 nM	DOTA-r-G-ABA-CPCR4 [entry 11]	–
14.4 ± 0.3 nM	28 ± 9 nM	83 ± 30 nM	DOTAGA-ABA-iodoCPCR4 (head to tail) [entry 4]	–
47 ± 8 nM	39 ± 1 nM	43 ± 2 nM	DOTAGA-G-ABA-iodoCPCR4 (head to tail) [entry 7]	–
